Earlier results on one molecule are cited in patent US10194658B2, “High concentration low VOC liquid gibberellin” (Stoller Enterprises, Inc., priority 2015, dated 2019).

The conditions of this data set: at 20° C.

Take `CC(O)CO` (stereo not shown) [propylene glycol, propane-1,2-diol]: the vapor pressure was 0.08 mm Hg.
